# Literature values in patent publication US20240082151A1, “ORALLY IMPLANTABLE DRUG DELIVERY DEVICE” (priority 2019, published 2024).
# Tests used:
# HIV = details: target for effective HIV prevention
# [1] = target TFV-DP in PBMCs 50 fmol per million cells; PB-PK simulation (ref 33)
# [2] = another study (ref 34)
SMILES,"steady state plasma CAB concentration, four times the protein adjusted IC90 (PA-IC90) (HIV)",linear subcutaneous TAF release rate estimated to lead to protective TFV-DP PBMC concentrations [1],TAF release rate estimated to be protective [2]
"C[C@H]1CO[C@@H]2Cn3cc(C(=O)NCc4ccc(F)cc4F)c(=O)c(O)c3C(=O)N12 [CAB, Cabotegravir]",0.66 µg/mL,–,–
"CC(C)OC(=O)[C@H](C)N[P@](=O)(CO[C@H](C)Cn1cnc2c(N)ncnc21)Oc1ccccc1 [TAF, Tenofovir alafenamide]",–,0.5 mg/day,ca. 0.3 mg d^−1
